Source: patent US6022892A, “Bis-platinum complexes with polyamine ligands as antitumor agents” (Hoffman-La Roche Inc., priority 1998, dated 2000)

What was measured:
L1210/CDDP = assay: cytotoxic effect in vitro on cisplatin resistant subline L1210/CDDP; format: cell-based, murine; conditions: after 72 hours from the drug exposure, resistant line
Experimental: (§1) The compounds of formula (I) were tested for their cytotoxic effect "in vitro" on various tumor cell lines, among which murine leukemia L1210, human ovarian carcinoma A2780 and the respective cisplatin resistant sublines L1210/CDDP and A2780/CDDP.
(§2) a) IC50 (concentration of the drug expressed as ([…] which causes a 50% inhibition of the cell growth) determined after 2 hours from the drug exposure.
b), c) IC50 determined after 72 hours from the drug exposure in the non resistant and in the resistant cell lines, receptively.

A2780/CDDP = assay: cytotoxic effect in vitro on cisplatin resistant subline A2780/CDDP; format: cell-based, human; conditions: after 1 hour from the drug exposure, resistant line
Experimental: as §1, §2
(§3) d), e) IC50 determined after 1 hour from the drug exposure in the non resistant and in the resistant cell lines, receptively.

A2780 = assay: cytotoxic effect in vitro on human ovarian carcinoma A2780; format: cell-based; conditions: after 1 hour from the drug exposure
Experimental: as §1, §2, §3

L1210CDDP = assay: in vivo antitumor test, L1210/CDDP tumor cells inoculated ip in mouse; conditions: ip 24, 120 and 216 hours after tumor inoculation
Experimental: In addition, the compounds of the invention were tested in an "in vivo" test in which L1210 and L1210/CDDP tumor cells are inoculated intraperitoneally (ip) in a mouse and the compound is administered ip 24, 120 and 216 hours after tumor inoculation.
% T/C=[(MST treated)/(MST control)]×100

Row | Compound | L1210/CDDP IC50 72h (L1210/CDDP) [µg/mL] | A2780/CDDP IC50 1h (A2780/CDDP) [µg/mL] | A2780 IC50 1h (A2780) [ng/mL] | T/C % (mean survival time treated/control) (L1210CDDP; 6 mg/kg) [%] | T/C % (mean survival time treated/control) (L1210CDDP; 2 mg/kg) [%]
1 | [Cl-].[Cl-].[Cl-].[NH2][Pt+]([NH2])([Cl])[NH]CCCC[NH2+]CCC[NH][Pt+]([NH2])([NH2])[Cl] [Example 14, [trans-(PtCl(NH3)2)2-(-spermidine]Cl3] | 0.03 | 0.13 | < 5 |  | 
2 | N.N.[Cl][Pt][Cl] [cisplatin, reference compound] |  |  |  | 110 | 
3 | [trans-(PtCl(NH3)2)2 (-spermine]Cl4 [Example 16] |  |  | < 5 |  | 172
4 | [trans-(PtCl(NH3)2)2 H2 N--(CH2)6 --NH2 ](NO3)2 [reference compound] | 0.1 |  |  |  | 
